Source: publication PMC6691788, “Design and synthesis of phthalazine-based compounds as potent anticancer agents with potential antiangiogenic activity via VEGFR-2 inhibition” (Journal of Enzyme Inhibition and Medicinal Chemistry, 2019)

Legend:
CCRF-CEM = test: NCI 60 cell panel SRB screen; type: cell-based, human; conditions: for activity at 10 µM: single dose 10 μM, read-out: percent cell growth promotion
K-562 = test: NCI 60 cell panel SRB screen; type: cell-based; conditions: Homo sapiens, K562; for activity at 10 µM: K-562, single dose 10 μM, read-out: percent cell growth promotion
RPMI-8226 = test: NCI 60 cell panel SRB screen; type: cell-based; conditions: Homo sapiens; for activity at 10 µM: RPMI-8226, single dose 10 μM, read-out: percent cell growth promotion
SR = test: NCI 60 cell panel SRB screen; type: cell-based; conditions: Homo sapiens; for activity at 10 µM: single dose 10 μM, read-out: percent cell growth promotion
NCI-H226 = test: NCI 60 cell panel SRB screen; type: cell-based; conditions: Homo sapiens; for activity at 10 µM: NCI-H226, single dose 10 μM, read-out: percent cell growth promotion
NCI-H23 = test: NCI 60 cell panel SRB screen; type: cell-based; conditions: Homo sapiens; for activity at 10 µM: NCI-H23, single dose 10 μM, read-out: percent cell growth promotion
NCI-H322M = test: NCI 60 cell panel SRB screen; type: cell-based; conditions: Homo sapiens; for activity at 10 µM: single dose 10 μM, read-out: percent cell growth promotion
NCI-H522 = test: NCI 60 cell panel SRB screen; type: cell-based; conditions: Homo sapiens; for activity at 10 µM: NCI-H522, single dose 10 μM, read-out: percent cell growth promotion
COLO 205 = test: NCI 60 cell panel SRB screen; type: cell-based; conditions: Homo sapiens; for activity at 10 µM: COLO 205, single dose 10 μM, read-out: percent cell growth promotion
SW-620 = test: NCI 60 cell panel SRB screen; type: cell-based; conditions: Homo sapiens; for activity at 10 µM: SW-620, single dose 10 μM, read-out: percent cell growth promotion
SNB-75 = test: NCI 60 cell panel SRB screen; type: cell-based; conditions: Homo sapiens; for activity at 10 µM: SNB-75, single dose 10 μM, read-out: percent cell growth promotion
LOX IMVI = test: NCI 60 cell panel SRB screen; type: cell-based; conditions: Homo sapiens; for activity at 10 µM: read-out: percent cell growth promotion
MALME-3M = test: NCI 60 cell panel SRB screen; type: cell-based; conditions: Homo sapiens; for activity at 10 µM: read-out: percent cell growth promotion
SK-MEL-28 = test: NCI 60 cell panel SRB screen; type: cell-based; conditions: Homo sapiens; for activity at 10 µM: SK-MEL-28, read-out: percent cell growth promotion
OVCAR-4 = test: NCI 60 cell panel SRB screen; type: cell-based; conditions: Homo sapiens; for activity at 10 µM: OVCAR-4, single dose 10 μM, read-out: percent cell growth promotion
OVCAR-5 = test: NCI 60 cell panel SRB screen; type: cell-based; conditions: Homo sapiens; for activity at 10 µM: OVCAR-5, single dose 10 μM, read-out: percent cell growth promotion
786-0 = test: NCI 60 cell panel SRB screen; type: cell-based; conditions: Homo sapiens; for activity at 10 µM: 786-0, single dose 10 μM, read-out: percent cell growth promotion
BT-549 = test: NCI 60 cell panel SRB screen; type: cell-based; conditions: Homo sapiens; for activity at 10 µM: BT-549, read-out: percent cell growth promotion
T-47D = test: NCI 60 cell panel SRB screen; type: cell-based; conditions: Homo sapiens, T47D; for activity at 10 µM: read-out: percent cell growth promotion
VEGFR-2 tyrosine kinase = target: T1, VEGFR-2 tyrosine kinase (Homo sapiens, UniProt P35968); test: In vitro VEGFR-2 tyrosine kinase assay (BPS Bioscience); type: biochemical; conditions: read-out: VEGFR-2 % inhibition; 10 μM concentration
T1 construct: purchased BPS Bioscience 40301
In short: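 For IC50, ADP formation after a 30-min 30 °C reaction was detected by ADP-Glo luminescence in duplicate, blank-subtracted and fitted as log inhibitor versus normalised response. The 10 µM single-dose test instead measured remaining ATP (Kinase-Glo Plus) after 40 min at 30 °C with poly(Glu,Tyr) substrate, 10 μM ATP, pH 7.4, 1% DMSO.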

[1] = 5 log dose, 48 h, read-out: LC50 (the source's name)

T1 sequence (P35968 20-1356): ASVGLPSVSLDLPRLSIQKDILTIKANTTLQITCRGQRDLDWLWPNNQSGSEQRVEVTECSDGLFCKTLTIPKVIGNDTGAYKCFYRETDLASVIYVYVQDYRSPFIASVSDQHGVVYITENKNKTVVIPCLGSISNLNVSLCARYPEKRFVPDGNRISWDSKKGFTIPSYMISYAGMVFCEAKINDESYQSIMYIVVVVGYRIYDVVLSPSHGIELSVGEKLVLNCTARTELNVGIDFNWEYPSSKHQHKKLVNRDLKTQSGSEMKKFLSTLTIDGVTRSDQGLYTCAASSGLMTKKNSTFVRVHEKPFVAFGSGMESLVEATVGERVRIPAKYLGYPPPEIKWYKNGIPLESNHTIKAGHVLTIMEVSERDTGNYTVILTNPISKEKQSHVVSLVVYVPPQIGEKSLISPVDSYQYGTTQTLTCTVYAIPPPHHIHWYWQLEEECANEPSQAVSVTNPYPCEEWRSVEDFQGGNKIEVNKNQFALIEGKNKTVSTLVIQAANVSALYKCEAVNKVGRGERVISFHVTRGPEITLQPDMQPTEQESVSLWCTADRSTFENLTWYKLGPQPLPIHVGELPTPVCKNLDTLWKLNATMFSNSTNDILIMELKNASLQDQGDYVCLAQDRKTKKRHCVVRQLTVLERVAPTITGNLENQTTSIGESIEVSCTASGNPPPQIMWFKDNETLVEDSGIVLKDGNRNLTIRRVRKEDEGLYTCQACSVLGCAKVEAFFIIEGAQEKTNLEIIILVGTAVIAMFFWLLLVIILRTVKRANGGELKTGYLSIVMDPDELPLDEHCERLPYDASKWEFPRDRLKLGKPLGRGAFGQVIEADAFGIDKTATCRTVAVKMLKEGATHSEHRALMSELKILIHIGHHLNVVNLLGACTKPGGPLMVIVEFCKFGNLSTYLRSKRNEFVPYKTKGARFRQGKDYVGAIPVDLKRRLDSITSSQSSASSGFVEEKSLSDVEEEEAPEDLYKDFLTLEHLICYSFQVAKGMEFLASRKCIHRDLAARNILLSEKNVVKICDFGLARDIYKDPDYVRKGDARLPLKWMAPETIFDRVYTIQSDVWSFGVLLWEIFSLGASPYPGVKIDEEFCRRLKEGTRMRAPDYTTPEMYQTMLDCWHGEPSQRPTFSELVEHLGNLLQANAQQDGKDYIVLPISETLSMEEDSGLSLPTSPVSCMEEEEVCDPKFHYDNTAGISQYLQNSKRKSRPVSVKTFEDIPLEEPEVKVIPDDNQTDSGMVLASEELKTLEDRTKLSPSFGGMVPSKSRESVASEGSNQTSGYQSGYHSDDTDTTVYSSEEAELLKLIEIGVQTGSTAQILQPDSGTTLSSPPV

Clc1ccc(Nc2nnc(CNc3ccccc3)c3ccccc23)cc1 [Compound 16a, N-(4-Chlorophenyl)-4-((phenylamino)methyl)phthalazin-1-amine]
TGI (CCRF-CEM; 5 log dose): 17.6 µM
GI50 (CCRF-CEM; Homo sapiens, 5 log dose): 3.53 µM
CC50 (CCRF-CEM; Homo sapiens, 5 log dose, 48 h, read-out: LC50 (the source's name)): > 25 µM
activity at 10 µM (CCRF-CEM; Homo sapiens): 12.4%
GI50 (K-562; K-562, 5 log dose): 1710 nM
IC (TGI) (K-562; K-562, 5 log dose): 14.5 µM
CC50 (K-562; K-562, 5 log dose, 48 h, read-out: LC50 (the source's name)): > 25 µM
activity at 10 µM (K-562): 5.39%
GI50 (RPMI-8226; RPMI-8226, 5 log dose): 2100 nM
IC (TGI) (RPMI-8226; RPMI-8226, 5 log dose): 7.71 µM
CC50 (RPMI-8226; RPMI-8226, 5 log dose, 48 h, read-out: LC50 (the source's name)): > 25 µM
activity at 10 µM (RPMI-8226): 3.35%
GI50 (SR; 5 log dose): 1750 nM
IC (TGI) (SR; 5 log dose): 12.3 µM
CC50 (SR; [1]): > 25 µM
activity at 10 µM (SR): -9.19%
GI50 (NCI-H226; NCI-H226, 5 log dose): 2520 nM
IC (TGI) (NCI-H226; NCI-H226, 5 log dose): 7.98 µM
CC50 (NCI-H226; NCI-H226, 5 log dose, 48 h, read-out: LC50 (the source's name)): > 25 µM
activity at 10 µM (NCI-H226): 25%
GI50 (NCI-H23; NCI-H23, 5 log dose): 2500 nM
IC (TGI) (NCI-H23; NCI-H23, 5 log dose): 16.4 µM
CC50 (NCI-H23; NCI-H23, 5 log dose, 48 h, read-out: LC50 (the source's name)): > 25 µM
activity at 10 µM (NCI-H23): 9.95%
GI50 (NCI-H322M; 5 log dose): 3.54 µM
IC (TGI) (NCI-H322M; 5 log dose): 18.3 µM
CC50 (NCI-H322M; [1]): > 25 µM
activity at 10 µM (NCI-H322M): 30.4%
GI50 (NCI-H522; NCI-H522, 5 log dose): 680 nM
IC (TGI) (NCI-H522; NCI-H522, 5 log dose): 4.62 µM
CC50 (NCI-H522; NCI-H522, 5 log dose, 48 h, read-out: LC50 (the source's name)): 18.5 µM
activity at 10 µM (NCI-H522): -5.92%
GI50 (COLO 205; COLO 205, 5 log dose): 910 nM
IC (TGI) (COLO 205; COLO 205, 5 log dose): 5.39 µM
CC50 (COLO 205; COLO 205, 5 log dose, 48 h, read-out: LC50 (the source's name)): 20.5 µM
activity at 10 µM (COLO 205): 11.9%
GI50 (SW-620; SW-620, 5 log dose): 3.84 µM
IC (TGI) (SW-620; SW-620, 5 log dose): 11.1 µM
CC50 (SW-620; SW-620, 5 log dose, 48 h, read-out: LC50 (the source's name)): > 25 µM
activity at 10 µM (SW-620): 30.8%
GI50 (SNB-75; SNB-75, 5 log dose): 870 nM
IC (TGI) (SNB-75; SNB-75, 5 log dose): 7.05 µM
LC50 (concentration killing 50% of cells) (SNB-75; SNB-75, 5 log dose, 48 h): > 25 µM
activity at 10 µM (SNB-75): 19.6%
GI50 (LOX IMVI): 1570 nM
CC50 (LOX IMVI; [1]): 11.4 µM
IC (TGI) (LOX IMVI; read-out: TGI): 4.97 µM
activity at 10 µM (LOX IMVI): 12.1%
GI50 (MALME-3M; Malme-3M): 2660 nM
IC (TGI) (MALME-3M; Malme-3M, read-out: TGI): 9.92 µM
activity at 10 µM (MALME-3M; Malme-3M): -13.8%
CC50 (MALME-3M; MALME-3M, 5 log dose, 48 h, read-out: LC50 (the source's name)): > 25 µM
GI50 (SK-MEL-28; SK-MEL-28): 3.67 µM
IC (TGI) (SK-MEL-28; SK-MEL-28, read-out: TGI): 10.5 µM
activity at 10 µM (SK-MEL-28): 14.9%
CC50 (SK-MEL-28; SK-MEL-28, 5 log dose, 48 h, read-out: LC50 (the source's name)): > 25 µM
GI50 (OVCAR-4; OVCAR-4, 5 log dose): 3000 nM
IC (TGI) (OVCAR-4; OVCAR-4, 5 log dose): > 25 µM
CC50 (OVCAR-4; OVCAR-4, 5 log dose, 48 h, read-out: LC50 (the source's name)): > 25 µM
activity at 10 µM (OVCAR-4): 19.3%
GI50 (OVCAR-5; OVCAR-5, 5 log dose): 4.92 µM
IC (TGI) (OVCAR-5; OVCAR-5, 5 log dose): > 25 µM
CC50 (OVCAR-5; OVCAR-5, 5 log dose, 48 h, read-out: LC50 (the source's name)): > 25 µM
activity at 10 µM (OVCAR-5): 41.5%
GI50 (786-0; 786-0, 5 log dose): 4.01 µM
IC (TGI) (786-0; 786-0, 5 log dose): 12.5 µM
CC50 (786-0; 786-0, 5 log dose, 48 h, read-out: LC50 (the source's name)): > 25 µM
activity at 10 µM (786-0): 21.4%
GI50 (BT-549; BT-549): 2930 nM
IC (TGI) (BT-549; BT-549, read-out: TGI): 8.2 µM
activity at 10 µM (BT-549): 4.94%
CC50 (BT-549; BT-549, 5 log dose, 48 h, read-out: LC50 (the source's name)): 22.9 µM
GI50 (T-47D): 1170 nM
IC (TGI) (T-47D; read-out: TGI): 8.28 µM
activity at 10 µM (T-47D): 2.82%
CC50 (T-47D; T-47D, 5 log dose, 48 h, read-out: LC50 (the source's name)): > 25 µM
inhibition at 10 µM (VEGFR-2 tyrosine kinase): 47%

Cc1nnc(Oc2ccc(NC(=O)Nc3ccc(Cl)cc3)cc2)c2ccccc12 [Compound 7e, 1–(4-Chlorophenyl)-3–(4-(4-methylphthalazin-1-yloxy)phenyl)urea]
activity at 10 µM (CCRF-CEM; Homo sapiens): 40.2%
activity at 10 µM (K-562): 61.1%
activity at 10 µM (RPMI-8226): 55.6%
activity at 10 µM (SR): 38.5%
activity at 10 µM (NCI-H226): 79.1%
activity at 10 µM (NCI-H23): 84.9%
activity at 10 µM (NCI-H322M): 82.4%
activity at 10 µM (NCI-H522): 63.8%
activity at 10 µM (COLO 205): 87.4%
activity at 10 µM (SW-620): 95%
activity at 10 µM (SNB-75): 47.3%
activity at 10 µM (LOX IMVI): 78.1%
activity at 10 µM (MALME-3M; Malme-3M): 92.6%
activity at 10 µM (SK-MEL-28): 88.3%
activity at 10 µM (OVCAR-4): 70.8%
activity at 10 µM (OVCAR-5): 119%
activity at 10 µM (786-0): 83.9%
activity at 10 µM (BT-549): 72%
activity at 10 µM (T-47D): 57.9%
inhibition at 10 µM (VEGFR-2 tyrosine kinase): 14%
